From patent publication US10538554B2, “Peptides and uses therefor as antiviral agents” (priority 2015, dated 2020)
Like-named read-outs stand apart in the source and are kept apart here. Bridge positions count the residues as written; N and C are the ends. Square brackets hold non-standard residues; d marks the D form. Peptide text beside a SMILES is read from it.

Assays:
H9N2 A/Iran/16/2000 = settings: 48 h
[1] = test system: H1N1 A1/Malaysia/302/1954; settings: A1/Malaysia/302/1954, 48 h
H3N8 A/Miami/2/63 = settings: A/Miami/2/63, 48 h
H3N2 A/HK/8/1968 = settings: A/HK/8/1968, 48 h
H1N1 A/PR/8/1934 = settings: A/PR/8/1934, 48 h, 1 μM

## C[C@H](O)[C@H]1NC(=O)[C@H](N)CSSC[C@H](C(=O)O)NC(=O)[C@@H](CC(N)=O)NC(=O)[C@@H](C)NC(=O)[C@@H](Cc2ccccc2)NC(=O)[C@@H](CCCNC(=N)N)NC(=O)[C@@H](CO)NC(=O)[C@@H](CCCCN)NC1=O [PSP 1, H-ctksrfanc-OH] (H-[dC][dT][dK][dS][dR][dF][dA][dN][dC]-OH; disulfide 1-9)
H9N2 A/Iran/16/2000; 500 μM
  % inhibition H9N2: 36.4%
[1]; 500 μM
  % inhibition H1N1: 29.4%
H3N8 A/Miami/2/63; 500 μM
  % inhibition H3N8: 79.4%
H3N2 A/HK/8/1968; 500 μM
  % inhibition H3N2: 70.4%

## C[C@H](O)[C@H]1NC(=O)[C@H](N)CSSC[C@H](C(=O)O)NC(=O)[C@@H](CC(N)=O)NC(=O)[C@@H](CS)NC(=O)[C@@H](Cc2ccccc2)NC(=O)[C@@H](CCCNC(=N)N)NC(=O)[C@@H](CO)NC(=O)[C@@H](CCCCN)NC1=O [PSP 2, H-ctksrfcnc-OH] (H-[dC][dT][dK][dS][dR][dF][dC][dN][dC]-OH; disulfide 1-9)
[1]; 500 μM
  % inhibition H1N1: 67.6%
H3N8 A/Miami/2/63; 500 μM
  % inhibition H3N8: 65%
H3N2 A/HK/8/1968; 500 μM
  % inhibition H3N2: 18.5%

## C[C@H](O)[C@H]1NC(=O)[C@H](N)CSSC[C@H](C(=O)O)NC(=O)[C@@H](CC(N)=O)NC(=O)[C@@H](CC(=O)O)NC(=O)[C@@H](Cc2ccccc2)NC(=O)[C@@H](CCCNC(=N)N)NC(=O)[C@@H](CO)NC(=O)[C@@H](CCCCN)NC1=O [PSP 3, H-ctksrfdnc-OH] (H-[dC][dT][dK][dS][dR][dF][dD][dN][dC]-OH; disulfide 1-9)
H9N2 A/Iran/16/2000; 500 μM
  % inhibition H9N2: >50%
[1]; 500 μM
  % inhibition H1N1: 29.4%
H3N8 A/Miami/2/63; 500 μM
  % inhibition H3N8: 67%
H3N2 A/HK/8/1968; 500 μM
  % inhibition H3N2: 74.1%

## C[C@H](O)[C@H]1NC(=O)[C@H](N)CSSC[C@H](C(=O)O)NC(=O)[C@@H](CC(N)=O)NC(=O)[C@@H](CCC(=O)O)NC(=O)[C@@H](Cc2ccccc2)NC(=O)[C@@H](CCCNC(=N)N)NC(=O)[C@@H](CO)NC(=O)[C@@H](CCCCN)NC1=O [PSP 4, H-ctksrfenc-OH] (H-[dC][dT][dK][dS][dR][dF][dE][dN][dC]-OH; disulfide 1-9)
[1]; 500 μM
  % inhibition H1N1: 52.9%
H3N8 A/Miami/2/63; 500 μM
  % inhibition H3N8: 64%
H3N2 A/HK/8/1968; 500 μM
  % inhibition H3N2: 22.7%

## C[C@H](O)[C@H]1NC(=O)[C@H](N)CSSC[C@H](C(=O)O)NC(=O)[C@@H](CC(N)=O)NC(=O)[C@@H](Cc2ccccc2)NC(=O)[C@@H](Cc2ccccc2)NC(=O)[C@@H](CCCNC(=N)N)NC(=O)[C@@H](CO)NC(=O)[C@@H](CCCCN)NC1=O [PSP 5, H-ctksrffnc-OH] (H-[dC][dT][dK][dS][dR][dF][dF][dN][dC]-OH; disulfide 1-9)
[1]; 500 μM
  % inhibition H1N1: 47.1%
H3N8 A/Miami/2/63; 500 μM
  % inhibition H3N8: 77.3%
H3N2 A/HK/8/1968; 500 μM
  % inhibition H3N2: 45.5%

## C[C@H](O)[C@H]1NC(=O)[C@H](N)CSSC[C@H](C(=O)O)NC(=O)[C@@H](CC(N)=O)NC(=O)[C@@H](Cc2c[nH]cn2)NC(=O)[C@@H](Cc2ccccc2)NC(=O)[C@@H](CCCNC(=N)N)NC(=O)[C@@H](CO)NC(=O)[C@@H](CCCCN)NC1=O [PSP 7, H-ctksrfhnc-OH] (H-[dC][dT][dK][dS][dR][dF][dH][dN][dC]-OH; disulfide 1-9)
H9N2 A/Iran/16/2000; 500 μM
  % inhibition H9N2: 31.8%
[1]; 500 μM
  % inhibition H1N1: 23.5%
H3N8 A/Miami/2/63; 500 μM
  % inhibition H3N8: 76.3%
H3N2 A/HK/8/1968; 500 μM
  % inhibition H3N2: 81.8%

## CC[C@@H](C)[C@H]1NC(=O)[C@@H](Cc2ccccc2)NC(=O)[C@@H](CCCNC(=N)N)NC(=O)[C@@H](CO)NC(=O)[C@@H](CCCCN)NC(=O)[C@@H]([C@H](C)O)NC(=O)[C@H](N)CSSC[C@H](C(=O)O)NC(=O)[C@@H](CC(N)=O)NC1=O [PSP 8, H-ctksrfinc-OH] (H-[dC][dT][dK][dS][dR][dF][dI][dN][dC]-OH; disulfide 1-9)
H9N2 A/Iran/16/2000; 500 μM
  % inhibition H9N2: 90.9%
[1]; 500 μM
  % inhibition H1N1: 79.4%
H3N8 A/Miami/2/63; 500 μM
  % inhibition H3N8: 83.5%
H3N2 A/HK/8/1968; 500 μM
  % inhibition H3N2: 90.9%

## CC(C)C[C@H]1NC(=O)[C@@H](Cc2ccccc2)NC(=O)[C@@H](CCCNC(=N)N)NC(=O)[C@@H](CO)NC(=O)[C@@H](CCCCN)NC(=O)[C@@H]([C@H](C)O)NC(=O)[C@H](N)CSSC[C@H](C(=O)O)NC(=O)[C@@H](CC(N)=O)NC1=O [PSP 10, H-ctksrflnc-OH] (H-[dC][dT][dK][dS][dR][dF][dL][dN][dC]-OH; disulfide 1-9)
H9N2 A/Iran/16/2000; 500 μM
  % inhibition H9N2: 50%
[1]; 500 μM
  % inhibition H1N1: 88.2%
H3N8 A/Miami/2/63; 500 μM
  % inhibition H3N8: 82.5%
H3N2 A/HK/8/1968; 500 μM
  % inhibition H3N2: 95.5%

## C[C@H](O)[C@H]1NC(=O)[C@H](N)CSSC[C@H](C(=O)O)NC(=O)[C@@H](CC(N)=O)NC(=O)[C@H]2CCCN2C(=O)[C@@H](Cc2ccccc2)NC(=O)[C@@H](CCCNC(=N)N)NC(=O)[C@@H](CO)NC(=O)[C@@H](CCCCN)NC1=O [PSP 13, H-ctksrfpnc-OH] (H-[dC][dT][dK][dS][dR][dF][dP][dN][dC]-OH; disulfide 1-9)
H9N2 A/Iran/16/2000; 500 μM
  % inhibition H9N2: 18.2%
[1]; 500 μM
  % inhibition H1N1: 32.7%
H3N8 A/Miami/2/63; 500 μM
  % inhibition H3N8: 70.1%
H3N2 A/HK/8/1968; 500 μM
  % inhibition H3N2: 29.6%

## C[C@H](O)[C@H]1NC(=O)[C@H](N)CSSC[C@H](C(=O)O)NC(=O)[C@@H](CC(N)=O)NC(=O)[C@@H](CCCNC(=N)N)NC(=O)[C@@H](Cc2ccccc2)NC(=O)[C@@H](CCCNC(=N)N)NC(=O)[C@@H](CO)NC(=O)[C@@H](CCCCN)NC1=O [PSP 15, H-ctksrfrnc-OH] (H-[dC][dT][dK][dS][dR][dF][dR][dN][dC]-OH; disulfide 1-9)
[1]; 500 μM
  % inhibition H1N1: 11.5%
H3N8 A/Miami/2/63; 500 μM
  % inhibition H3N8: 61.9%
H3N2 A/HK/8/1968; 500 μM
  % inhibition H3N2: 3.7%

## CC(C)[C@H]1NC(=O)[C@@H](Cc2ccccc2)NC(=O)[C@@H](CCCNC(=N)N)NC(=O)[C@@H](CO)NC(=O)[C@@H](CCCCN)NC(=O)[C@@H]([C@H](C)O)NC(=O)[C@H](N)CSSC[C@H](C(=O)O)NC(=O)[C@@H](CC(N)=O)NC1=O [PSP 18, H-ctksrfvnc-OH] (H-[dC][dT][dK][dS][dR][dF][dV][dN][dC]-OH; disulfide 1-9)
H9N2 A/Iran/16/2000; 500 μM
  % inhibition H9N2: 45.5%
[1]; 500 μM
  % inhibition H1N1: 51.9%
H3N8 A/Miami/2/63; 500 μM
  % inhibition H3N8: 78.4%
H3N2 A/HK/8/1968; 500 μM
  % inhibition H3N2: 70.4%

## C[C@H](O)[C@H]1NC(=O)[C@H](N)CSSC[C@H](C(=O)O)NC(=O)[C@@H](CC(N)=O)NC(=O)[C@@H](Cc2c[nH]c3ccccc23)NC(=O)[C@@H](Cc2ccccc2)NC(=O)[C@@H](CCCNC(=N)N)NC(=O)[C@@H](CO)NC(=O)[C@@H](CCCCN)NC1=O [PSP 19, H-ctksrfwnc-OH] (H-[dC][dT][dK][dS][dR][dF][dW][dN][dC]-OH; disulfide 1-9)
[1]; 500 μM
  % inhibition H1N1: 28.8%
H3N8 A/Miami/2/63; 500 μM
  % inhibition H3N8: 78.4%
H3N2 A/HK/8/1968; 500 μM
  % inhibition H3N2: 92.6%

## C[C@H](O)[C@H]1NC(=O)[C@H](N)CSSC[C@H](C(=O)O)NC(=O)[C@@H](CC(N)=O)NC(=O)[C@@H](Cc2ccc(O)cc2)NC(=O)[C@@H](Cc2ccccc2)NC(=O)[C@@H](CCCNC(=N)N)NC(=O)[C@@H](CO)NC(=O)[C@@H](CCCCN)NC1=O [PSP 20, H-ctksrfync-OH] (H-[dC][dT][dK][dS][dR][dF][dY][dN][dC]-OH; disulfide 1-9)
H9N2 A/Iran/16/2000; 500 μM
  % inhibition H9N2: 63.6%
[1]; 500 μM
  % inhibition H1N1: 73.5%
H3N8 A/Miami/2/63; 500 μM
  % inhibition H3N8: 81.4%
H3N2 A/HK/8/1968; 500 μM
  % inhibition H3N2: 95.5%

## CC[C@@H](C)[C@H]1NC(=O)[C@@H](Cc2ccccc2)NC(=O)[C@@H](CCCNC(=N)N)NC(=O)[C@@H](C)NC(=O)[C@@H](Cc2c[nH]c3ccccc23)NC(=O)[C@@H]([C@H](C)O)NC(=O)[C@H](NC(=O)[C@H](CCCCN)NC(=O)[C@H](CCCCN)NC(=O)[C@H](CCCNC(=N)N)NC(=O)[C@@H](N)CCCNC(=N)N)CSSC[C@H](C(=O)O)NC(=O)[C@@H](CC(N)=O)NC1=O [PSP III B1, H-RRKKctwarfinc-OH] (H-RRKK[dC][dT][dW][dA][dR][dF][dI][dN][dC]-OH; disulfide 5-13)
H9N2 A/Iran/16/2000; 50 μM
  % inhibition H9N2: 95%
[1]; 50 μM
  % inhibition H1N1: 85%
H3N8 A/Miami/2/63; 50 μM
  % inhibition H3N8: 96%
H3N2 A/HK/8/1968; 50 μM
  % inhibition H3N2: 92%

## CC[C@@H](C)[C@H]1NC(=O)[C@@H](Cc2ccccc2)NC(=O)[C@@H]([C@H](C)O)NC(=O)[C@@H](Cc2ccccc2)NC(=O)[C@@H](Cc2c[nH]c3ccccc23)NC(=O)[C@@H](Cc2c[nH]c3ccccc23)NC(=O)[C@H](NC(=O)[C@H](CCCCN)NC(=O)[C@H](CCCCN)NC(=O)[C@H](CCCNC(=N)N)NC(=O)[C@@H](N)CCCNC(=N)N)CSSC[C@H](C(=O)O)NC(=O)[C@@H](C(C)C)NC1=O [PSP VI A18, H-RRKKcwwftfivc-OH] (H-RRKK[dC][dW][dW][dF][dT][dF][dI][dV][dC]-OH; disulfide 5-13)
H1N1 A/PR/8/1934
  % Inhibition: 53%

## CC[C@@H](C)[C@H]1NC(=O)[C@@H](Cc2ccccc2)NC(=O)[C@@H]([C@H](C)O)NC(=O)[C@@H](Cc2ccccc2)NC(=O)[C@@H](Cc2c[nH]c3ccccc23)NC(=O)[C@@H](Cc2c[nH]c3ccccc23)NC(=O)[C@H](NC(=O)[C@H](CCCCN)NC(=O)[C@H](CCCCN)NC(=O)[C@H](CCCNC(=N)N)NC(=O)[C@@H](N)CCCNC(=N)N)CSSC[C@H](C(=O)O)NC(=O)[C@@H](Cc2c[nH]c3ccccc23)NC1=O [PSP VI A19, H-RRKKcwwftfiwc-OH] (H-RRKK[dC][dW][dW][dF][dT][dF][dI][dW][dC]-OH; disulfide 5-13)
H1N1 A/PR/8/1934
  % Inhibition: 78%

## CC[C@@H](C)[C@H]1NC(=O)[C@@H](Cc2ccccc2)NC(=O)[C@@H]([C@H](C)O)NC(=O)[C@@H](Cc2ccccc2)NC(=O)[C@@H](Cc2c[nH]c3ccccc23)NC(=O)[C@@H](Cc2c[nH]c3ccccc23)NC(=O)[C@H](NC(=O)[C@H](CCCCN)NC(=O)[C@H](CCCCN)NC(=O)[C@H](CCCNC(=N)N)NC(=O)[C@@H](N)CCCNC(=N)N)CSSC[C@H](C(=O)O)NC(=O)[C@@H](Cc2ccc(O)cc2)NC1=O [PSP VI A20, H-RRKKcwwftfiyc-OH] (H-RRKK[dC][dW][dW][dF][dT][dF][dI][dY][dC]-OH; disulfide 5-13)
H1N1 A/PR/8/1934
  % Inhibition: 53%
